Assay results from article PMC6430017, “Structural and chemical insights into the covalent-allosteric inhibition of the protein kinase Akt” (Chemical Science, 2019).
Where two headings read alike, the source gives them in different places.

What was measured:
in vitro = conditions: human, microsomes
Procedure: (§1) For this purpose, we used a microsomal stability assay that is a good predictor for phase I metabolic stability.[50]
(§2) Metabolic stability under oxidative conditions was determined by LCMS-based measuring of
(§3) degradation of compounds at 3 µM in human and murine liver microsomes over 60 minutes at 37 °C
(§4) Calculating the compound half-life t1/2, the in vitro intrinsic clearance CLint is

T47D = assay: Cell viability assay (CellTiter-Glo); assay type: cell-based; conditions: Homo sapiens, 120 h, read-out: Cell viability assay EC50
Procedure: Cell Culture and Viability Assay
(§5) analysis, cells were plated on day 0 into white 384-well cell culture plates (Greiner Bio-One) using a
(§6) Multidrop reagent dispenser (Thermo) at cell numbers that ensure linear and optimal luminescent
(§7) signal intensity (AN3-CA: 800 cells/well; BT-474: 400 cells/well; Dan-G: 400 cells/well; HPAF-II: 400
(§8) cells/well). Then the cells were incubated for 24 h in a humidified atmosphere at 37 °C/5 % CO2. The
(§9) cells were treated with inhibitors in serial dilutions ranging from 30 µM down to 0.1 nM using an Echo
(§10) 520 acoustic liquid handler (Labcyte Inc.). Cell viability was analysed on day 5 using the CellTiter-Glo
(§11) assay (Promega) as per manufacturer’s instructions. Luminescence signal was recorded by an EnVision
(§12) Multilabel 2104 Plate Reader (PerkinElmer) with 500 ms integration time. All data were normalized to
(§13) the plate positive control (30 µM staurosporine) and negative control (DMSO). Finally, the data was
(§14) processed with the Quattro Software Suite using a four parameter logistic model. As a quality control,
(§15) the Z’-factor was calculated from 16 positive and negative control values. Only assay results showing
(§16) a Z’-factor ≥ 0.5 were used for further analysis. All experimental points were measured in duplicates
(§17) for each plate and were replicated in at least three times.

AN3CA = assay: Cell viability assay (CellTiter-Glo); assay type: cell-based; conditions: Homo sapiens, AN3-CA, 120 h, read-out: Cell viability assay EC50
Procedure: Cell Culture and Viability Assay
as §5, §6, §7, §8, §9, §10, §11, §12, §13, §14, §15, §16, §17

MCF-7 = assay: Cell viability assay (CellTiter-Glo); assay type: cell-based; conditions: Homo sapiens, MCF7, 120 h, read-out: Cell viability assay EC50
Procedure: Cell Culture and Viability Assay
as §5, §6, §7, §8, §9, §10, §11, §12, §13, §14, §15, §16, §17

KU-19-19 = assay: Cell viability assay (CellTiter-Glo); assay type: cell-based; conditions: Homo sapiens, read-out: Cell viability assay EC50
Procedure: Cell Culture and Viability Assay
as §5, §6, §7, §8, §9, §10, §11, §12, §13, §14, §15, §16, §17

full-length Akt (Akt^wt) [1] = biological target: T1, full-length Akt (Akt^wt) (Homo sapiens, UniProt P31749); assay: HTRF KinEASE activity-based assay, IC50 determination; assay type: biochemical; conditions: for IC50: HTRF KinEASE
Procedure: (§18) The biochemical inhibitory activity (IC50) was determined with the HTRF KinEASE assay from Cisbio as
(§19) previously described.1 All reagents for HTRF experiments were purchased from Cisbio Bioassays,
(§20) France. The measurements were analyzed using the Quattro Software Suite for IC50-determination.
(§21) Time-dependent IC50-measurements were performed as described. Briefly, IC50 values were
(§22) determined for twelve different incubation times and afterwards plotted versus accordingly. Data was
(§23) analyzed according to literature procedure.2

BT-474 = assay: Cell viability assay (CellTiter-Glo); assay type: cell-based; conditions: Homo sapiens, read-out: Cell viability assay EC50
Procedure: Cell Culture and Viability Assay
as §5, §6, §7, §8, §9, §10, §11, §12, §13, §14, §15, §16, §17

ZR-75-1 = assay: Cell viability assay (CellTiter-Glo); assay type: cell-based; conditions: Homo sapiens, read-out: Cell viability assay EC50
Procedure: Cell Culture and Viability Assay
as §5, §6, §7, §8, §9, §10, §11, §12, §13, §14, §15, §16, §17

full-length Akt (Akt^wt) [2] = biological target: T1, full-length Akt (Akt^wt); assay: Kinetic characterization by time-dependent IC50 measurements; assay type: biochemical; conditions: from time-dependent IC50
Procedure: as §18, §19, §20, §21, §22, §23

[3] = Phase I metabolic stability assay; conditions: human
Procedure: as §1, §2, §3, §4

[4] = 120 h, KU-19-19 (bladder), day 5

T1 sequence (P31749 whole entry): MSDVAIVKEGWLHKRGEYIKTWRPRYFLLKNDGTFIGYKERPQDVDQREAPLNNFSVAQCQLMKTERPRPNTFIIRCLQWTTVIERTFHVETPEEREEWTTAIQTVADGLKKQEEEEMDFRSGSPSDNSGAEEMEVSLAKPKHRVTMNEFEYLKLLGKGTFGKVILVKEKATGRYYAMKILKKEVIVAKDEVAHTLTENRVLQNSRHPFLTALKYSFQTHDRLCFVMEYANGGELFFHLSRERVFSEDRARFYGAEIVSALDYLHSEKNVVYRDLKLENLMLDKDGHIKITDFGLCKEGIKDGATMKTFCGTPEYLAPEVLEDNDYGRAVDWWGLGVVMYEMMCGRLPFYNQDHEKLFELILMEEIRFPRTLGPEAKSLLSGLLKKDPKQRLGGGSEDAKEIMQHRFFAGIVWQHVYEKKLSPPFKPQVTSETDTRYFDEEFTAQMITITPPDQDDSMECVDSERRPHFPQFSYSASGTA

SMILES | EC50 (T47D; T47D (breast), day 5) | EC50 (AN3CA; AN3CA (endometrium), day 5) | EC50 (MCF-7; MCF-7 (breast), day 5) | EC50 (KU-19-19; [4]) | IC50 (full-length Akt (Akt^wt) [1]) | EC50 (BT-474; 120 h, BT-474 (breast), day 5) | EC50 (ZR-75-1; 120 h, ZR-75-1 (breast), day 5) | Ki (full-length Akt (Akt^wt) [2]) | kinact (full-length Akt (Akt^wt) [2]) | kinact/KI (full-length Akt (Akt^wt) [2]) | half-life at 1 h, 3 µM ([3]; liver microsomes) | microsomal CLint at 3 µM ([3]; liver microsomes) | other results
C=CC(=O)Nc1cc2c(cc1Cl)[nH]c(=O)n2C1CCN(Cc2ccc(-c3nc4cc[nH]c(=O)c4cc3-c3ccccc3)cc2)CC1 [24a] | 25 ± 7 nM | 159 ± 70 nM | 138 ± 81 nM | 2310 ± 908 nM | 1.2 ± 0.3 nM | 259 ± 68 nM | 2 nM |  |  |  |  |  | half-life at 1 h, 3 µM (in vitro): 87 min; microsomal CLint at 3 µM (in vitro): 5 µL/min/mg
CN(C)C/C=C/C(=O)Nc1ccc2[nH]c(=O)n(C3CCN(Cc4ccc(-c5nc6cc[nH]c(=O)c6cc5-c5ccccc5)cc4)CC3)c2c1 [24c] | 2110 ± 49 nM |  |  | > 30000 nM | 18.1 ± 4.9 nM |  | 427 ± 23 nM | 33 ± 2.4 nM | 0.000833 s⁻¹ | 25000 ± 5000 M⁻¹ s⁻¹ |  |  | fold loss in inhibitory activity (IC50) compared to 1 (full-length Akt (Akt^wt) [1]): 20 fold
C=CC(=O)Nc1ccccc1C(=O)NC1CCN(Cc2ccc(-c3nc4cc[nH]c(=O)c4cc3-c3ccccc3)cc2)CC1 [30a] | 41 ± 19 nM | 1330 ± 60 nM | 1020 ± 621 nM | 5540 ± 1510 nM | 10.8 ± 2.5 nM | 2270 ± 700 nM | 22 ± 7 nM | 27.2 ± 4.2 nM | 0.0023 s⁻¹ | 85000 ± 18000 M⁻¹ s⁻¹ |  |  | 
C=CC(=O)Nc1ccc(C(=O)NC2CCN(Cc3ccc(-c4nc5cc[nH]c(=O)c5cc4-c4ccccc4)cc3)CC2)cc1 [30c] | 1360 ± 454 nM | 3470 ± 1690 nM | 2840 ± 685 nM |  | 285 ± 65 nM | 5210 ± 1890 nM | 151 ± 47 nM | 362 ± 74 nM | 0.0007 s⁻¹ | 2000 ± 1000 M⁻¹ s⁻¹ |  |  | 
C=CC(=O)Nc1ccc(C(=O)NC2CCN(Cc3ccc(-c4nc5cc[nH]c(=O)c5cc4-c4ccccc4)cc3)CC2)c(F)c1 [30d] | 546 ± 87 nM | 1310 ± 158 nM | 2440 ± 1020 nM | 6070 ± 1100 nM | 52.8 ± 16.3 nM | 1960 ± 391 nM | 73 ± 25 nM | 98.6 ± 10 nM | 0.00142 s⁻¹ | 14000 ± 2000 M⁻¹ s⁻¹ |  |  | 
C=CC(=O)Nc1cc(Br)cc(C(=O)NC2CCN(Cc3ccc(-c4nc5cc[nH]c(=O)c5cc4-c4ccccc4)cc3)CC2)c1 [30e] | 179 ± 30 nM | 568 ± 106 nM | 224 ± 88 nM | 6440 ± 1240 nM | 3.7 ± 0.7 nM | 621 ± 85 nM | 10 ± 3 nM | 7.6 ± 1.1 nM | 0.0013 s⁻¹ | 168000 ± 25000 M⁻¹ s⁻¹ | 39 min | 12 µL/min/mg | 
C=CC(=O)Nc1ccc(C(=O)NC2CCN(Cc3ccc(-c4nc5cc[nH]c(=O)c5cc4-c4ccccc4)cc3)CC2)s1 [30f] | 183 ± 52 nM | 879 ± 223 nM | 1190 ± 518 nM | 3060 ± 848 nM | 14 ± 6.1 nM | 1100 ± 212 nM | 33 ± 9 nM | 39.3 ± 6.6 nM | 0.00147 s⁻¹ | 38000 ± 7000 M⁻¹ s⁻¹ | 39 min | 12 µL/min/mg | 
NC1(C(=O)N[C@@H](CCO)c2ccc(Cl)cc2)CCN(c2ncnc3[nH]ccc23)CC1 [Capivasertib, reference compound] |  |  | 555 nM |  |  | 1600 ± 450 nM |  |  |  |  | 33 min | 14 µL/min/mg | 
COc1cccc2c1C(=O)c1c(O)c3c(c(O)c1C2=O)C[C@@](O)(C(=O)CO)C[C@@H]3O[C@H]1C[C@H](N)[C@H](O)[C@H](C)O1 [Doxorubicin, reference compound] | 127 ± 40 nM | 30 ± 9 nM | 153 ± 9 nM | 72 ± 8 nM |  | 623 ± 134 nM | 100 ± 26 nM |  |  |  |  |  | 
CC(C)NC[C@@H](C(=O)N1CCN(c2ncnc3c2[C@H](C)C[C@H]3O)CC1)c1ccc(Cl)cc1 [Ipatasertib, reference compound] |  |  |  |  |  |  |  |  |  |  | 39 min | 12 µL/min/mg | EC50 (T47D; T47D): 443 ± 6 nM; EC50 (AN3CA): 925 ± 457 nM; EC50 (MCF-7): 5040 ± 1830 nM; EC50 (BT-474; BT-474, 120 h): 2370 ± 745 nM; EC50 (ZR-75-1; ZR-75-1, 120 h): 219 ± 83 nM
NC1(c2ccc(-c3nc4ccn5c(=O)[nH]nc5c4cc3-c3ccccc3)cc2)CCC1 [MK-2206, reference compound] |  |  |  | 7050 ± 421 nM |  | 1680 ± 316 nM | 63 ± 21 nM |  |  |  | 347 min | 1 µL/min/mg | 
C=CC(=O)Nc1ccc2[nH]c(=O)n(C3CCN(Cc4ccc(-c5nc6cc[nH]c(=O)c6cc5-c5ccccc5)cc4)CC3)c2c1 [compound 1, borussertib] |  |  |  |  |  |  |  |  |  |  |  |  | half-life at 1 h, 3 µM ([3]; microsomes): 99 min; microsomal CLint at 3 µM ([3]; microsomes): 5 µL/min/mg; EC50 (MCF-7): 277 ± 90 nM; EC50 (KU-19-19; KU-19-19, 120 h): 7770 ± 641 nM; EC50 (BT-474; BT-474, 120 h): 373 ± 54 nM
C=CC(=O)Nc1ccc(N2CCN(Cc3ccc(-c4nc5cc[nH]c(=O)c5cc4-c4ccccc4)cc3)CC2)cc1 [compound 31] | 832 ± 81 nM | 3610 ± 1290 nM | 1220 ± 58 nM |  |  | 4620 ± 1060 nM | 116 ± 16 nM |  |  |  |  |  | 
C=CC(=O)Nc1cccc(CNC2CCN(Cc3ccc(-c4nc5cc[nH]c(=O)c5cc4-c4ccccc4)cc3)CC2)c1 [compound 32] | 1900 ± 578 nM | 3290 ± 298 nM | 2200 ± 125 nM | 6760 ± 1460 nM | 192 ± 45 nM | 4020 ± 912 nM | 384 ± 62 nM | 327 ± 27 nM | 0.00118 s⁻¹ | 4000 ± 1000 M⁻¹ s⁻¹ |  |  | 
